Assay results as given in ChEMBL document CHEMBL1145513, “S-adenosylmethionine-dependent protein methylation in mammalian cytosol via tyrphostin modification by catechol-O-methyltransferase” (J Biol Chem, 2007).
Active and inactive are the calls of the source. The calls are words filed in the database; no cut-off is given here.

What was measured:
Sus scrofa [1] = organism: Sus scrofa; experiment: Activity of pig recombinant catechol-O-methyltransferase assessed per unit enzyme
Sus scrofa [2] = organism: Sus scrofa; experiment: Inhibition of pig recombinant catechol-O-methyltransferase at 100 uM

Row | SMILES | Activity (Sus scrofa [1]) | Activity (Sus scrofa [2])
1 | N#CC(C#N)=C(N)/C(C#N)=C/c1cc(O)c(O)c(O)c1 | 1.79 pmol/min | –
2 | N#C/C(=C\c1ccc(O)c(O)c1)C(=O)NCCCCc1ccccc1 | 2.84 pmol/min | –
3 | N#CC(C#N)=Cc1ccc(O)c(O)c1 | 2.44 pmol/min | –
4 | COc1c(C(C)(C)C)cc(C=C(C#N)C#N)cc1C(C)(C)C | 0.04 pmol/min | –
5 | N#C/C(=C\c1ccc(O)c(O)c1)C(=O)NCc1ccccc1 | 3.06 pmol/min | –
6 | N#CC(C#N)=Cc1cc(O)c(O)c([N+](=O)[O-])c1 | 0.05 pmol/min | Active
7 | N#CC(C#N)=Cc1ccc(O)cc1 | 0.05 pmol/min | –
8 | N#C/C(=C\c1ccc(O)c(O)c1)C(=O)O | 3.67 pmol/min | –
9 | C[C@@H](NC(=O)/C(C#N)=C/c1ccc(O)c(O)c1)c1ccccc1 | 3.06 pmol/min | –
10 | N#CC(C#N)=Cc1cc(O)c(O)c(O)c1 | 1.65 pmol/min | –
11 | N#C/C(=C\c1ccc(O)c(O)c1)C(N)=O | 2.98 pmol/min | –
12 | N#C/C(=C\c1ccc(O)c(O)c1)C(N)=S | 2.45 pmol/min | –
13 | C[C@H](NC(=O)/C(C#N)=C/c1ccc(O)c(O)c1)c1ccccc1 | 3.08 pmol/min | –
14 | N#C/C(=C\c1ccc(O)c(O)c1)C(=O)NCCCc1ccccc1 | 3.11 pmol/min | –
